# Assay results: ChEMBL document CHEMBL1127585, “Novel 1-phenylcycloalkanecarboxylic acid derivatives are potent and selective sigma 1 ligands” (J Med Chem, 1994); call rule not given here
# How the values were obtained:
# [1] = target: T1, Muscarinic acetylcholine receptor M1 (Homo sapiens, UniProt P11229); assay: Binding affinity towards muscarinic m1 receptor
# T1 sequence (P11229 whole entry): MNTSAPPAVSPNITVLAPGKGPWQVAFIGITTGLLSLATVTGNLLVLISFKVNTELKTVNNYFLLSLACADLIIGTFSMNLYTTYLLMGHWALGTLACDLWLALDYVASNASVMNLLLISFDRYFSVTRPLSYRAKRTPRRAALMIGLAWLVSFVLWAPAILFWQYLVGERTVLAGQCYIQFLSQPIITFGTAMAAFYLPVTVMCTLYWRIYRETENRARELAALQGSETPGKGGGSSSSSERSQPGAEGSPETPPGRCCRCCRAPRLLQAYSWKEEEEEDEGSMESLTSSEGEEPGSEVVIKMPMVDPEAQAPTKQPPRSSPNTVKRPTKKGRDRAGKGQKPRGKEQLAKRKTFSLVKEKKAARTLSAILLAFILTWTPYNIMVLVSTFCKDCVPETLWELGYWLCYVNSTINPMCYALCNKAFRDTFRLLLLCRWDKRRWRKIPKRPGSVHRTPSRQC
# [2] = target: Sigma non-opioid intracellular receptor 1 (Rattus norvegicus) (UniProt Q9R0C9); assay: Ratio between the Ki values of sigma-2 and sigma-1 receptors
# Sequence of Sigma non-opioid intracellular receptor 1 (Rattus norvegicus) (Q9R0C9 whole entry): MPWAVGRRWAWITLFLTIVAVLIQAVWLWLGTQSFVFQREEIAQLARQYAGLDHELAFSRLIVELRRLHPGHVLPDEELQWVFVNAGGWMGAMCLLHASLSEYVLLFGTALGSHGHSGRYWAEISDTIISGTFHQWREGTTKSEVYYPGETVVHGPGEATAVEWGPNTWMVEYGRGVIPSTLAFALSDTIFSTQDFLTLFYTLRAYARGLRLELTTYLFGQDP
# [3] = target: T2, Muscarinic acetylcholine receptor M2 (Homo sapiens, UniProt P08172); assay: Binding affinity towards muscarinic m2 receptor
# T2 sequence (P08172 whole entry): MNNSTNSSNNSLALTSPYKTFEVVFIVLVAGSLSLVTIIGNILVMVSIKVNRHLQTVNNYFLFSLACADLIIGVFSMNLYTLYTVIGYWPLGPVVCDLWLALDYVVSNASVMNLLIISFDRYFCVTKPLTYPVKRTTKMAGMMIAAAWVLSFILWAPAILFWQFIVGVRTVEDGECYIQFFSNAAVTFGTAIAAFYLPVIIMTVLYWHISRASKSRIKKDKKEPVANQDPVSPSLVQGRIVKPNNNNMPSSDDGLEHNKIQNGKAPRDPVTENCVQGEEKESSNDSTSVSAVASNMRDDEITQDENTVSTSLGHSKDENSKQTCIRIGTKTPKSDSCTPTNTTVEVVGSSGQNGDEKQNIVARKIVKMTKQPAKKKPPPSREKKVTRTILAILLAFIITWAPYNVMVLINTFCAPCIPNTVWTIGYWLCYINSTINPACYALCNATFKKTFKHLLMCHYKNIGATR
# Sigma 2 receptor [4] = assay: Tested for its binding affinity towards sigma-2 site in rat brain using [3H]DTG as radioligand; type: tissue-based
# [5] = Ratio between the Ki values of m1 and sigma-1 receptors
# [6] = target: T3, Sigma non-opioid intracellular receptor 1 (Rattus norvegicus, UniProt Q9R0C9); assay: Tested for its binding affinity towards sigma-1 site in rat brain using E3H1-(+)-SKF 10047 as radioligand in rat brain; type: tissue-based
# T3 sequence (Q9R0C9 whole entry): as the sequence (Q9R0C9 whole entry) above
# Glutamate NMDA receptor = assay: Binding affinity towards PCP (1-(1-phenylcyclohexyl)piperidine) receptor.; type: protein-complex assay
# [7] = target: T3, Sigma non-opioid intracellular receptor 1; assay: Tested for its binding affinity towards sigma-1 site in rat brain, using [3H]-(+)-SKF- 10047 as radioligand; type: tissue-based
# [8] = target: T3, Sigma non-opioid intracellular receptor 1; assay: Tested for its binding affinity towards sigma-1 site in rat brain, using [3H]DTG as radioligand; type: tissue-based
# Sigma 2 receptor [9] = assay: Tested for its binding affinity towards sigma-2 site using [3H]-DTG as radioligand
# [10] = target: T3, Sigma non-opioid intracellular receptor 1; assay: Tested for its binding affinity towards sigma-1 site using E3H1-(+)-SKF 10047 as radioligand in rat brain; type: tissue-based
SMILES,Ki [1],Ratio [2],Ki [3],Ki (Sigma 2 receptor [4]),Ratio [5],Ki [6],Ki (Glutamate NMDA receptor),Ki [7],Ki [8],Ki (Sigma 2 receptor [9]),Ki [10]
O=C(OCOCCN1CCOCC1)C1(c2ccc(Cl)c(Cl)c2)CCCCC1,3110 nM,25,1190 nM,981 nM,80,39 nM,Not Active,–,–,–,–
CCN(CC)CCOCCOC(=O)C1(c2ccccc2)CC1,> 10000 nM,65,> 10000 nM,2910 nM,> 220,45 nM,Not Active,–,–,–,–
CCN(CC)CCOCNC(=O)C1(c2ccc(Cl)c(Cl)c2)CCCCC1,581 nM,20,500 nM,527 nM,22,27 nM,Not Active,–,–,–,–
CCN(CC)CCOCOC(=O)C1(c2ccc(Cl)c(Cl)c2)CCCCC1,20 nM,30,22 nM,667 nM,0.9,22 nM,Not Active,–,–,–,–
CCN(CC)CCOCCOC(=O)C(C)c1ccccc1 (stereo unspecified),> 10000 nM,78,> 10000 nM,3110 nM,> 250,40 nM,Not Active,–,–,–,–
Cc1ccccc1NC(=N)Nc1ccccc1C [DITOLYLGUANIDINE],–,–,–,–,–,–,Not Active,–,–,–,–
CCN(CC)CCOCCOC(=O)C1(c2ccccc2)CCCC1 [CARBETAPENTANE],76 nM,–,167 nM,–,–,–,Not Active,–,–,–,–
CCN(CC)CCOCCN(C)CC1(c2ccccc2)CCCC1,843 nM,32,1570 nM,1100 nM,25,34 nM,Not Active,–,–,–,–
CCN(CC)CCOCCOCC1(c2ccccc2)CCCC1,910 nM,17,844 nM,463 nM,34,27 nM,Not Active,–,–,–,–
O=C(NCOCCN1CCOCC1)C1(c2ccc(Cl)c(Cl)c2)CCCCC1,> 10000 nM,51,> 10000 nM,1640 nM,> 310,32 nM,Not Active,–,–,–,–
O=C(OCCN1CCOCC1)C1(c2ccccc2)CCCCC1,–,–,–,–,–,–,–,44 nM,–,–,–
O=C(OCOCCN1CCCC1)C1(c2ccc(Cl)c(Cl)c2)CCCCC1,63 nM,22,74 nM,688 nM,2,32 nM,Not Active,–,–,–,–
c1ccc(CCCCCNCCCCc2ccccc2)cc1,–,–,–,–,–,–,–,–,2 nM,–,–
CCN(CC)CCOCCOC(=O)C1(c2ccccc2)CCCCC1,135 nM,23,145 nM,780 nM,4,34 nM,Not Active,–,–,–,–
CCN(CC)CCOCCOC(=O)C1(c2ccc(Cl)cc2)CCCC1,75 nM,27,97 nM,648 nM,3.1,24 nM,Not Active,–,–,–,–
CCN(CC)CCOCCNC(=O)C1(c2ccccc2)CCCC1,> 10000 nM,13,4900 nM,2840 nM,> 46,215 nM,Not Active,–,–,–,–
CCN(CC)CCOCCNCC1(c2ccccc2)CCCC1,1700 nM,1.2,2270 nM,1100 nM,1.9,884 nM,Not Active,–,–,–,–
C=CCN1CCC2c3cc(O)ccc3CC1C2C (stereo unspecified),–,–,–,–,–,–,Not Active,–,–,44 nM,67 nM
CCN(CC)CCOCCOC(=O)C1(c2ccc(OC)cc2)CCCC1,1060 nM,25,692 nM,1500 nM,18,59 nM,–,–,–,–,–
